# Assay results reported in US20230257444A1, “FUSION PROTEIN AND COMBINATIONS THEREOF” (Agency for Science, Technology and Research, priority 2020, published 2023).
# What was measured:
# SC5314 Candida albicans [1] = assay: In vitro co-culture CFU assay of human primary immune cells against Candida albicans; assay type: cell-based; settings: 1 hr; for fungicidal activity (CFU): absence or presence of hDectin1-Fc; for reduction in CFU: between hDectin1-Fc 0 μg/ml and 1000 µg/ml, 37° C.
# Experimental: Macrophage assay: Human peripheral blood CD14+ monocytes were cultured at 1×10^6 cells/mL in 5 mL of ImmunoCult™-SF Macrophage Differentiation Medium with Human Recombinant M-CSF at 50 ng/ml in a T-25 flask at 37° C. in a 5% CO2 incubator. On Day 4, 2.5 mL of fresh ImmunoCult™-SF Macrophage Differentiation Medium was added to the flask. On Day 6, M1 activation was initiated with the addition of 50 ng/mL IFN-γ. On Day 8, the macrophages were treated with ACCUTASE and scrapped from the flask. The cells were centrifuged and resuspended in RPMI medium with 10% FBS and seeded into Eppendorf 96 well plates at 10^5 cells/well.
# NK cell assay: Human Peripheral Blood CD56+NK Cells 1×10^6 cells/mL in 5 mL of ImmunoCult™-XF T Cell Expansion Medium with Human Recombinant IL-2 at 500 IU/ml in a T-25 flask at 37° C. in a 5% CO2 incubator for 7 days. Additional fresh media was added on day 4. The cells were centrifuged and resuspended in RPMI medium with 10% FBS and seeded into Eppendorf 96 well plates at 10^5 cells/well.
# Monocyte assay: Human peripheral blood CD14+ Monocytes were cultured at 1×10^6 cells/mL in 5 mL of ImmunoCult™-SF Macrophage Differentiation Medium with Human Recombinant M-CSF at 10 ng/ml in a T-25 flask at 37° C. in a 5% CO2 incubator for 4 days. The cells were centrifuged and resuspended in RPMI medium with 10% FBS and seeded into Eppendorf 96 well plates at 10^5 cells/well.
# Neutrophil assay: Human peripheral neutrophils were extracted from Human […] using EasySep™ Direct Human Neutrophil Isolation Kit as per manufacturer's protocol. The isolated neutrophils were centrifuged and resuspended in RPMI medium with 10% FBS and G-CSF and seeded into Eppendorf 96 well plates at 10^5 cells/well.
# The co-culture CFU assay involves the addition of 10^5 cells/well of SC5314 Candida albicans cells to wells containing 10^5 cells/well of primary immune cells with final concentration of hDectin1-Fc at […] in a 96 well plate. The assay was incubated for 1 hr at 37° C. in a 5% CO2 atmosphere incubator. Samples were taken from each well at the end of the incubation and diluted accordingly before plating on YPD agar plates. The colonies were counted the following day. Each assay was done thrice and the average taken.
# To evaluate the capability of the hDectin1-Fc fusion protein in enhancing immune cell anti-candida function, 10^5 human primary immune cells were co-cultured with 10^5 Candida albicans in a 1 hr long assay incubated at 37° C. with varying concentrations of hDectin1-Fc from […]. The surviving Candida cells were diluted and plated and the colony forming units (CFU) used as a measure of fungicidal activity (FIG. 12). […]
# SC5314 Candida albicans [2] = assay: In vivo mouse monotherapy survival model (haematogenously disseminated candidiasis); design: species or system Balb/c mice
# Experimental: 9 week old female Balb/c mice (InVivos, Singapore) were injected intraperitoneally with 1, 2 or 4 mg hDectin1-Fc in groups of 8 and the drug was allowed to distribute within the mice till its peak concentration at 2 hours based on the pharmacokinetic data. The mice were then injected intravenously with 0.5, 0.25 or 0.1 milion SC5314 Candida albicans cells to achieve a haematogenously disseminated candidiasis model. Another set of mice were injected with 0.5, 1, 2 mg hDectin1-Fc followed by intravenous injection with SC5314 Candida albicans 2 hours later. […] The mice were observed daily and moribund mice were euthanized and counted as dead the following day. Kaplan-Meier survival plots were made to track the survival overtime of the mice. Statistical analysis of the difference between mice treated with hDectin1-Fc or untreated was done with the Mantel-Cox log rank test.
# To examine the effect of hDectin1-Fc passive immunization against reducing the fatality of haematogenously disseminated candidiasis, a Balb/c murine model of hDectin1-Fc at various doses in relation to Candida albicans inoculum was used. […] An untreated group without hDectin1-Fc but infected with the respective inoculum of Candida albicans was used as a control in each experimental set (FIG. 15). Survival in each group was monitored twice daily until all the mice had died or there was survival of 2 weeks from the last death. Moribund mice were euthanized and counted as part of the following day. […] The negative effect on survival of a high dose of hDectin1-Fc in relation to fungal inoculum is most apparent in the 4 mg hDectin1-Fc dose with 0.1 million Candida albicans (FIG. 15C) and 2 mg hDectin1-Fc with 0.05 million Candida albicans inoculum (FIG. 15D). […] The proximity between the 2 mg and 1 mg curves have a growing divergence as the fungal burden is reduced from 0.5 to 0.05 million (FIG. 15A-D).
substance,measurement,setting,value
hDectin1-Fc: soluble dimeric fusion protein: human Dectin-1 receptor polypeptide (aa 73-247) fused to human IgG1 Fc via hinge; SEQ ID NO: 5,fungicidal activity (CFU),SC5314 Candida albicans [1]; human NK cells,did not demonstrate any appreciable fungicidal activity
same,fungicidal activity (CFU),SC5314 Candida albicans [1]; human monocytes,did not demonstrate any appreciable fungicidal activity
same,reduction in CFU,SC5314 Candida albicans [1]; human primary macrophages,~50%
same,reduction in CFU,SC5314 Candida albicans [1]; human primary neutrophils,~50%
same,survival curve,"SC5314 Candida albicans [2]; 0.05 mg hDectin1-Fc, subacute inoculum of 0.05 million Candida albicans cells",prominent shift in the survival curve
same,survival (rate of death vs untreated group),"SC5314 Candida albicans [2]; 2 mg hDectin1-Fc i.p., 0.05 million Candida albicans i.v. (FIG. 15D)",rate of death was greater than the corresponding untreated group
same,survival (rate of death vs untreated group),"SC5314 Candida albicans [2]; 4 mg hDectin1-Fc i.p., 0.1 million Candida albicans i.v. (FIG. 15C)",rate of death was greater than the corresponding untreated group
same,survivability,"SC5314 Candida albicans [2]; hDectin1-Fc at the appropriate dose, passive immunization 2 hours before challenge",able to improve survivability
same,"survival, 1 mg dose versus 2 mg dose","SC5314 Candida albicans [2]; lethal infection model, 0.5 million Candida albicans cells (FIG. 15A)",marginal optimal therapeutic effect of the 1 mg dose over the 2 mg dose
